Test results taken from US7074789B2, “Kinase inhibitors” (Amgen Inc., priority 1999, dated 2006).

Experiments:
Format in all cases: biochemical
Lck = biological target: T1, Lck (Homo sapiens, UniProt P06239); assay: Kinase inhibition assay (33P transfer), Lck; conditions: for IC50: read-out: Lck-1
T1 construct: Kinases are expressed as either kinase domains or full length constructs; made in house
In short: (§1)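 Radiometric readout: 33P incorporated into surface-bound poly(Glu,Tyr) 4:1 or poly(Arg,Ser) 3:1 is counted by liquid scintillation after a 0.5% phosphoric acid wash. Enzymes were GST or polyHis fusions (kinase domain or full length) from E. coli or High Five insect cells.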

Zap-70 = biological target: T2, Zap-70 (Homo sapiens, UniProt P43403); assay: Kinase inhibition assay (33P transfer), Zap-70; conditions: for IC50: read-out: Zap-1
T2 construct: Kinases are expressed as either kinase domains or full length constructs; made in house
T2 sequence (P43403 1-619): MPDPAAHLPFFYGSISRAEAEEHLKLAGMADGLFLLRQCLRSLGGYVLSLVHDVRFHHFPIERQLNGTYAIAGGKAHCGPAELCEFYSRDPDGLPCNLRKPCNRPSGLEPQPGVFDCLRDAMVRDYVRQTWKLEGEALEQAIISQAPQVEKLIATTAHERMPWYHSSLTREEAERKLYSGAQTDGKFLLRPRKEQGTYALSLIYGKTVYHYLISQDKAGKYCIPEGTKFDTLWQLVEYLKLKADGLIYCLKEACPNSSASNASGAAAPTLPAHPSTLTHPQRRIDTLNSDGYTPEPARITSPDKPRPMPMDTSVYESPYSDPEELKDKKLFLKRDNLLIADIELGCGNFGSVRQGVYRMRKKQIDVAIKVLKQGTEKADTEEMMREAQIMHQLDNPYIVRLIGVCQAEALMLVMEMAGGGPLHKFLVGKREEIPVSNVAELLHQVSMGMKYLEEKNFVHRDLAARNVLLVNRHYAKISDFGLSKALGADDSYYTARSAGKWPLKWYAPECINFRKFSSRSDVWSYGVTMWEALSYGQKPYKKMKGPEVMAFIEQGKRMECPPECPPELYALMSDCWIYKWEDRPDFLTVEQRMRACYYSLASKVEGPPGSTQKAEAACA
In short: as §1

Itk = biological target: T3, Itk (Homo sapiens, UniProt Q08881); assay: Kinase inhibition assay (33P transfer), Itk; conditions: for IC50: read-out: Itk-1
T3 construct: Kinases are expressed as either kinase domains or full length constructs; made in house
T3 sequence (Q08881 1-620): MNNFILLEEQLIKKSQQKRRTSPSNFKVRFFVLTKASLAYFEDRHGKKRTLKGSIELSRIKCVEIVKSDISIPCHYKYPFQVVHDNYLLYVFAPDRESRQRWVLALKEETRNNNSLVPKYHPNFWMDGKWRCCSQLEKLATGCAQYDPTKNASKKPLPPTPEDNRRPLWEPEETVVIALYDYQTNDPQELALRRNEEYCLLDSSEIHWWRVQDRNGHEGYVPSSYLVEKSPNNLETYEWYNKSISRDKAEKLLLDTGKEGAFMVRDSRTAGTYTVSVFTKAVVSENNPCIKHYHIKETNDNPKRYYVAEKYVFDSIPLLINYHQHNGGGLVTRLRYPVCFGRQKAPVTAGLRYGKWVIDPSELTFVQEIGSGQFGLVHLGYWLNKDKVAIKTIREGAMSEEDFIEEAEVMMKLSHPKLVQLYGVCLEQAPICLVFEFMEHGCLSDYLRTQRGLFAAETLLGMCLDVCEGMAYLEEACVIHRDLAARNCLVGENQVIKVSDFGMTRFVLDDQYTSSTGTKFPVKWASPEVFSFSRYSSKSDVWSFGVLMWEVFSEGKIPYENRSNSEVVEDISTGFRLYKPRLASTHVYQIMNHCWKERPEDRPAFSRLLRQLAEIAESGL
In short: (§2)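 Recombinant kinase domains or full-length GST- or His-tagged constructs, from E. coli or baculovirus/High Five cells, sometimes with regulatory polypeptides. Transfer of 33P from ATP to plate-bound poly(Glu,Tyr) 4:1 or poly(Arg,Ser) 3:1 counted by liquid scintillation after phosphoric acid wash; IC50 is the concentration halving incorporation.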

EGFR = biological target: T4, EGFR (Homo sapiens, UniProt P00533); assay: Kinase inhibition assay (33P transfer), EGFR; conditions: Table 2, kinase inhibition class; for IC50: read-out: EGFR-1
T4 construct: Kinases are expressed as either kinase domains or full length constructs; made in house
In short: as §2

ErbB2 = biological target: T5, ErbB2 (Homo sapiens, UniProt P04626); assay: Kinase inhibition assay (33P transfer), ErbB2; conditions: for IC50: read-out: ErbB2-2
T5 construct: Kinases are expressed as either kinase domains or full length constructs; made in house
In short: as §2

Kdr = biological target: T6, Kdr (Homo sapiens, UniProt P35968); assay: Kinase inhibition assay (33P transfer), Kdr; conditions: for IC50: read-out: KDR-1
T6 construct: Kinases are expressed as either kinase domains or full length constructs; made in house
In short: as §1

Tek = biological target: T7, Tek (Homo sapiens, UniProt Q02763); assay: Kinase inhibition assay (33P transfer), Tek; conditions: for IC50: read-out: Tek-1
T7 construct: Kinases are expressed as either kinase domains or full length constructs; made in house
In short: as §2

c-Met = biological target: T8, c-Met (Homo sapiens, UniProt P08581); assay: Kinase inhibition assay (33P transfer), c-Met; conditions: Table 2, kinase inhibition class; for IC50: read-out: Met-1
T8 construct: Kinases are expressed as either kinase domains or full length constructs; made in house
In short: as §2

AKT = biological target: T9, AKT (Homo sapiens, UniProt Q9Y243); assay: Kinase inhibition assay (33P transfer), AKT; conditions: Table 2, kinase inhibition class; for IC50: read-out: AKT3-1
T9 construct: Kinases are expressed as either kinase domains or full length constructs; made in house
In short: as §1

IGFR-1 = biological target: T10, IGFR-1 (Homo sapiens, UniProt P08069); assay: Kinase inhibition assay, IGFR-1 (Table 2); conditions: Table 2, kinase inhibition class
T10 construct: Kinases are expressed as either kinase domains or full length constructs; made in house

PDGFRB = biological target: T11, PDGFRB (Homo sapiens, UniProt P09619); assay: Kinase inhibition assay (33P transfer), PDGFRB; conditions: for IC50: read-out: PDGFRB-1
T11 construct: Kinases are expressed as either kinase domains or full length constructs; made in house

T10 sequence (P08069 31-1367): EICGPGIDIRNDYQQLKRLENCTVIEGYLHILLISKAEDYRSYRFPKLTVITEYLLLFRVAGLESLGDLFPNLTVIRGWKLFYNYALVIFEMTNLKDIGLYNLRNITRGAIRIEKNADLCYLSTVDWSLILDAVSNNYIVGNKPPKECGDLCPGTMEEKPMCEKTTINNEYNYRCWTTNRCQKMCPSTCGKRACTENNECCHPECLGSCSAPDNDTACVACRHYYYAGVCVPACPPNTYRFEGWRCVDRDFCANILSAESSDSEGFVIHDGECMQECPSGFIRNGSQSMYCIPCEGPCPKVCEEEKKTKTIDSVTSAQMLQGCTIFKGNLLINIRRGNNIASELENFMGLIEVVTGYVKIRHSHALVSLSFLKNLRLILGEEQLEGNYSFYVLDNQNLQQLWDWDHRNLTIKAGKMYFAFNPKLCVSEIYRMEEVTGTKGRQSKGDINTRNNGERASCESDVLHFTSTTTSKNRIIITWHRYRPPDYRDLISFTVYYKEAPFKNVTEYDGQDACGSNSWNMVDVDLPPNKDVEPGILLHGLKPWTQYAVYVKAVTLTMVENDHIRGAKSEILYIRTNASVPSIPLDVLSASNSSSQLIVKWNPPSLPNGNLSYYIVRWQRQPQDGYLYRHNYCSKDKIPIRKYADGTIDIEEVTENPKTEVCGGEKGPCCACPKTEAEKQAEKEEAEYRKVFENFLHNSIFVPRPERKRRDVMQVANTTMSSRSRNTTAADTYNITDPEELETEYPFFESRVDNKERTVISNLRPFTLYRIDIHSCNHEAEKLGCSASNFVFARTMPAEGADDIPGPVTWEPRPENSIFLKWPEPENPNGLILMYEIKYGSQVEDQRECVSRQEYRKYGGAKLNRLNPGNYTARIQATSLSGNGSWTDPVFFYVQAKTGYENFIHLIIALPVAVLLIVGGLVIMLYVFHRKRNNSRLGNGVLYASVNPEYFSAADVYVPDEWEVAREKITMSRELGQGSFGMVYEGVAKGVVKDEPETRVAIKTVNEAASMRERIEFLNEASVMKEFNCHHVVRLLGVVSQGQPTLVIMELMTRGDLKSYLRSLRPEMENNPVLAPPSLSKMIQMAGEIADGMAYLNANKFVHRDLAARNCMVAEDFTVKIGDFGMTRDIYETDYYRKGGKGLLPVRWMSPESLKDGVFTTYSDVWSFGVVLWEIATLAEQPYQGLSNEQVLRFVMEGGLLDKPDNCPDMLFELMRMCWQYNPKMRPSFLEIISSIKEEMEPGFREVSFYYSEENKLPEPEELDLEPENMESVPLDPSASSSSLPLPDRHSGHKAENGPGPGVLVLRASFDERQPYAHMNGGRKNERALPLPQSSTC
T8 sequence (P08581 25-1390): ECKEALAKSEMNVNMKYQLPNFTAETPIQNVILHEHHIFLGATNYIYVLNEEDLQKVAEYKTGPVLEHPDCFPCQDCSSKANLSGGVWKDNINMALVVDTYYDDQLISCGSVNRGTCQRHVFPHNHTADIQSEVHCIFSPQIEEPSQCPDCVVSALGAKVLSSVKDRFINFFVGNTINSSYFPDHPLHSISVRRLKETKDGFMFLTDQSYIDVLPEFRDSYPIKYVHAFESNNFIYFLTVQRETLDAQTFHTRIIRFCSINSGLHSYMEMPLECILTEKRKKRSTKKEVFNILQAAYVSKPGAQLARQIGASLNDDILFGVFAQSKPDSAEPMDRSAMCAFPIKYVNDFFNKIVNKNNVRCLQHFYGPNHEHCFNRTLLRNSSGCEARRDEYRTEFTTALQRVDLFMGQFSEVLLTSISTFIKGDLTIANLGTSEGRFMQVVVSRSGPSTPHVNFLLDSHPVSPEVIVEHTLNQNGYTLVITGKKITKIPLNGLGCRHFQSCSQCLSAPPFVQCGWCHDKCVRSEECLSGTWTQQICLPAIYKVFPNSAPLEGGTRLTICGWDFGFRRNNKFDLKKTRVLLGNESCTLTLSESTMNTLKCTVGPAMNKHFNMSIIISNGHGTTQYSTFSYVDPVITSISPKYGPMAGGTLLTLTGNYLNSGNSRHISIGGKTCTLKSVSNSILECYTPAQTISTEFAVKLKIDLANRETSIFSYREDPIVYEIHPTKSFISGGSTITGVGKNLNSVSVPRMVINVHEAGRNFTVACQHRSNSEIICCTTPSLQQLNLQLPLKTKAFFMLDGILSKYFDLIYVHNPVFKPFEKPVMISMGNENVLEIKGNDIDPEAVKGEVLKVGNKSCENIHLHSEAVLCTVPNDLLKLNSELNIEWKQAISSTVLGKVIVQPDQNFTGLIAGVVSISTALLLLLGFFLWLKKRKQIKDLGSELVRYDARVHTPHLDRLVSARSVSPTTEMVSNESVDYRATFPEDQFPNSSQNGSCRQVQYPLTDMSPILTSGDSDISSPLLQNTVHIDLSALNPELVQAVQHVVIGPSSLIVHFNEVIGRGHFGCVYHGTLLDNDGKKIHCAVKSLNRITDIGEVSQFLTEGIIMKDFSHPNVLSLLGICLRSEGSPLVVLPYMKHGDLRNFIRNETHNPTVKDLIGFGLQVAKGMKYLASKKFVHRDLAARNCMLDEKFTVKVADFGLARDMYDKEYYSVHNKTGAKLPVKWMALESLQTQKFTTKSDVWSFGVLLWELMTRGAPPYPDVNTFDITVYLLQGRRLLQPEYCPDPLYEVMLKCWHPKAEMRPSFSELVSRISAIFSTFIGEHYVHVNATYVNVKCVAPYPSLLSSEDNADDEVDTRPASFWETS
T6 sequence (P35968 20-1356, species assumed): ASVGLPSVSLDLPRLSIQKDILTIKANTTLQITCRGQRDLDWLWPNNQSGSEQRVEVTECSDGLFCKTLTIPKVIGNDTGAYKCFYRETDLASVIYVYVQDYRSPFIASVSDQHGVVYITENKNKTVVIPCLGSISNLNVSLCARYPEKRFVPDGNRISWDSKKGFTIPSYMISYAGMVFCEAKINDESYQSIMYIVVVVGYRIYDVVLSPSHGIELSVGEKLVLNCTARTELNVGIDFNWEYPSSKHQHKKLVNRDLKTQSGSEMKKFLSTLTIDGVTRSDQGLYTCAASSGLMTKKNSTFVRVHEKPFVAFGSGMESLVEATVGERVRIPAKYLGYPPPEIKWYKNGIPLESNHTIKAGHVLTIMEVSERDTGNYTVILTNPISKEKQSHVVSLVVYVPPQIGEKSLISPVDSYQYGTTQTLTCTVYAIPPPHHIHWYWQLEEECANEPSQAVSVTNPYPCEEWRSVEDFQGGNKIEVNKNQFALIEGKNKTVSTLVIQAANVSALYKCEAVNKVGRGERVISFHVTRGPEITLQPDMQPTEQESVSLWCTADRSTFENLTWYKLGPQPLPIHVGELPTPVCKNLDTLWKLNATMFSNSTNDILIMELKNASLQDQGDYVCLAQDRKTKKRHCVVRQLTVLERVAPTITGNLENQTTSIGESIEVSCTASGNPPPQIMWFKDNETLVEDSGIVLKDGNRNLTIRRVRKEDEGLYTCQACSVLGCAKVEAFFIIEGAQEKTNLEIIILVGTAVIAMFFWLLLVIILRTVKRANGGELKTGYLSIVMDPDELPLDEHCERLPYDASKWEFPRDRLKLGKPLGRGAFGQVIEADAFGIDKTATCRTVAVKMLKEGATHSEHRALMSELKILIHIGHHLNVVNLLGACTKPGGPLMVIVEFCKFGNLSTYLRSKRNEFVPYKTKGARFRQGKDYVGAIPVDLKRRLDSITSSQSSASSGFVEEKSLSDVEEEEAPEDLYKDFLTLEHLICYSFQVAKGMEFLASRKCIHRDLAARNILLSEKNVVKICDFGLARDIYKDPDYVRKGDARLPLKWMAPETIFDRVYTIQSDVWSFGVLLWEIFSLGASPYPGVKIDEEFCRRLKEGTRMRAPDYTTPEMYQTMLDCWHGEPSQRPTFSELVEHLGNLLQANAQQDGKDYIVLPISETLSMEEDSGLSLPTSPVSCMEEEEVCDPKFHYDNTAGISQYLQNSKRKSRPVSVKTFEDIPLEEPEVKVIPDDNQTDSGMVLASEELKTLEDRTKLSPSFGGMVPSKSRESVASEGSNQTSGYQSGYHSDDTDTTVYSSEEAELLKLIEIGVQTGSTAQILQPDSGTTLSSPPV
T7 sequence (Q02763 23-1124, species assumed): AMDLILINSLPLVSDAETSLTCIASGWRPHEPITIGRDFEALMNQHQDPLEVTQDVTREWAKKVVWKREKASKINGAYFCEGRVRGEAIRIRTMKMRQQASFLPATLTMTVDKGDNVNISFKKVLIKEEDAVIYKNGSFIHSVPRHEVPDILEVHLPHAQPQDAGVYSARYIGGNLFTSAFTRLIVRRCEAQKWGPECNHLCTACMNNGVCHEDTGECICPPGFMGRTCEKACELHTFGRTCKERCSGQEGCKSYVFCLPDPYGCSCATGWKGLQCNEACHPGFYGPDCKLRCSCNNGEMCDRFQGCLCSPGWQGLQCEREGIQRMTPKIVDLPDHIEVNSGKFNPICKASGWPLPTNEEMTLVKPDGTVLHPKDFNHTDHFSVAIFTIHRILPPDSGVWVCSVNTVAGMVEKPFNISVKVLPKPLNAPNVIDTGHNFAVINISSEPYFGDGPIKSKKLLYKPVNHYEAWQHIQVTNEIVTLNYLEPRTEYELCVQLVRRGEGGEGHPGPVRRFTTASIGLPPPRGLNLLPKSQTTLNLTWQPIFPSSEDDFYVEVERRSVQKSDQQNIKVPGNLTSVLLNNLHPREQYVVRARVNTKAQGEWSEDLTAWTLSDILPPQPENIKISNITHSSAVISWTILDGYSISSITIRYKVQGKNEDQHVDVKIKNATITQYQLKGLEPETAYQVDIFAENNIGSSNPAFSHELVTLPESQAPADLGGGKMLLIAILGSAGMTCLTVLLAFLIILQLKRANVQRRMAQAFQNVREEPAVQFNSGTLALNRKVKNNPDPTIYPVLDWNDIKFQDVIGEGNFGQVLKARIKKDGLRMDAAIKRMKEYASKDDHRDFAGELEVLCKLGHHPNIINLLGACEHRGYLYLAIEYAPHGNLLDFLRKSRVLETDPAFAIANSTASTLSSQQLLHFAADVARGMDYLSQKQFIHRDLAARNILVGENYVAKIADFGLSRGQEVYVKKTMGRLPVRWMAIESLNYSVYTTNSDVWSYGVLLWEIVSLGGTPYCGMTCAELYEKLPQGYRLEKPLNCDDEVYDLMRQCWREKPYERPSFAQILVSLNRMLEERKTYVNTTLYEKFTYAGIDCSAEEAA

SMILES | IC50 (Lck) | IC50 (Zap-70) | IC50 (Itk) | IC50 (EGFR) | IC50 (ErbB2) | IC50 (Kdr) | IC50 (Tek) | IC50 (c-Met) | IC50 (AKT) | IC50 (IGFR-1) | IC50 (PDGFRB) | further results
COc1ccc(CNc2ncccc2-c2ncnc(Nc3cc(OC)c(OC)c(OC)c3)n2)nc1 [Compound 1085] | 0.841 to 5.05 µM | > 9.46 µM | > 9.46 µM | > 9.46 µM | > 9.46 µM | < 0.841 µM | > 9.46 µM | > 9.46 µM | > 9.46 µM | > 9.46 µM | 0.841 to 5.05 µM | 
COc1cc(Nc2ncnc(-n3ncc(-c4ccccc4)c3N)n2)cc(OC)c1OC [Compound 522] | 0.954 to 5.72 µM | > 10.7 µM | 0.954 to 5.72 µM | 5.72 to 8.34 µM | 8.34 to 10.7 µM | 5.72 to 8.34 µM | 8.34 to 10.7 µM | 5.72 to 8.34 µM | > 10.7 µM | 0.954 to 5.72 µM | 5.72 to 8.34 µM | 
COC(=O)c1ccc(-c2cc(Nc3ncnc(Nc4cc(OC)c(OC)c(OC)c4)n3)[nH]n2)cc1 [Compound 523] | < 0.838 µM | > 9.42 µM | 7.33 to 9.42 µM | 0.838 to 5.03 µM | 7.33 to 9.42 µM | > 9.42 µM | > 9.42 µM | < 0.838 µM | > 9.42 µM | < 0.838 µM | > 9.42 µM | 
COc1cc(Nc2ncnc(Nc3ccc(O)c4ncccc34)n2)cc(OC)c1OC [Compound 699] |  |  |  |  |  |  |  |  |  |  |  | Lck-1 (Lck): A (A<0.4 ug/mL); Zap-1 (Zap-70): E (E>4.5 ug/mL); Itk-1 (Itk): B (B>0.4 and <2.4 ug/mL); EGFR-1 (EGFR): B (B>0.4 and <2.4 ug/mL); ErbB2-2 (ErbB2): A (A<0.4 ug/mL); KDR-1 (Kdr): B (B>0.4 and <2.4 ug/mL); Tek-1 (Tek): D (D>3.5 and <4.5 ug/mL); Met-1 (c-Met): E (E>4.5 ug/mL); AKT3-1 (AKT): E (E>4.5 ug/mL); IGFR-1 (IGFR-1): B (B>0.4 and <2.4 ug/mL); PDGFRB-1 (PDGFRB): A (A<0.4 ug/mL)
COc1cc(Nc2ncnc(Nc3cc(-c4ccc(C(=O)O)cc4)n[nH]3)n2)cc(OC)c1OC [Compound 1004] | < 0.863 µM | > 9.71 µM | 7.55 to 9.71 µM | 0.863 to 5.18 µM | 0.863 to 5.18 µM | 0.863 to 5.18 µM | 0.863 to 5.18 µM | < 0.863 µM | > 9.71 µM | < 0.863 µM | 0.863 to 5.18 µM | 
COc1cc(Nc2ncnc(Nc3cccc(C(C)=O)c3)n2)cc(OC)c1OC [Compound 697] | < 1.01 µM | > 11.4 µM | > 11.4 µM | 1.01 to 6.07 µM | 1.01 to 6.07 µM | 1.01 to 6.07 µM | 8.85 to 11.4 µM | > 11.4 µM | > 11.4 µM | 1.01 to 6.07 µM | < 1.01 µM | 
